Assay results as given in patent publication US11738088B2, “Boryl ethers, carbonates, and cyclic acetals as oxidatively-triggered drug delivery vehicles” (University of Pittsburgh—Of the Commonwealth System of …, priority 2016, dated 2023).

How the values were obtained:
[1] = Oxidative breakdown with urea.H2O2 monitored by 1H NMR; format: physicochemical; conditions: for yield of released product (1H NMR vs internal standard) / half-life: 6-12 equiv H2O2.urea, pH 8.0, CD3CN:D2O 5:1, rt; for half-life: H2O2.urea (6-12 equiv) in CD3CN:D2O 5:1, read-out: t1/2 (substrate consumption); for oxidative breakdown / cargo release (in words): in the presence of H2O2
Description: The oxidative breakdown of compounds 7 and 8 was achieved by subjecting them (˜25 mM) to urea.H2O2 (300 mM) in a mixture of CD3CN and aqueous (D2O) buffer (pH=8.0). The buffer was selected to mimic the experimentally determined pH of mitochondria in consideration of potential applications to mitigating neuronal oxidative stress. Initial experiments were conducted in a 5:1 ratio of CD3CN and buffer (Scheme 3). Reaction progress was monitored by ^1H NMR through following the disappearance of the signals for diastereotopic hydrogens from the methylene group in the starting materials and the appearance of the corresponding enantiotopic hydrogens in butanone. Conversions were calculated by comparison to the internal standard 1,2-dimethoxyethane.

[2] = as above; format: physicochemical; conditions: urea.H2O2 300 mM
[3] = ~25 mM substrate, urea.H2O2 300 mM, CD3CN:buffer 5:1, pH 8.0

| yield of released product (1H NMR vs internal standard) [1] | half-life [1] | oxidative breakdown / cargo release (in words) [1] | Compound | other results |
| --- | --- | --- | --- | --- |
| 84% | < 2 min | released smoothly | CCC(C)(OCOC1CCCCC1)B1OC(C)(C)C(C)(C)O1 (centres unmarked) [Compound 11] | – |
| 85% | < 2 min | released smoothly | CCC(C)(OCO[C@@H]1C[C@H](C)CC[C@H]1C(C)C)B1OC(C)(C)C(C)(C)O1 (some centres unmarked) [Compound 13] | – |
| 83% | < 2 min | – | CC(C)C(OC1CCCCC1)B1OC(C)(C)C(C)(C)O1 (centres unmarked) [Compound 19] | – |

The next lines start with the molecule.

| Compound | yield of released product (1H NMR vs internal standard) [1] | half-life [1] | oxidative breakdown / cargo release (in words) [1] | other results |
| --- | --- | --- | --- | --- |
| CCC(C)(OCOC)B1OC(C)(C)C(C)(C)O1 (centres unmarked) [Compound 7] | – | – | – | NMR yield of butanone ([1]; urea.H2O2 300 mM, CD3CN:buffer 5:1, pH 8.0): 79%; time for consumption of 50% of the starting material [1, 3]: less than 2 min; NMR yield of butanone ([2]; CD3CN:buffer 1:1): 84%; NMR yield of butanone ([2]; pH 7.2): 81% |
| CCC(C)(OC(=O)Oc1ccccc1)B1OC(C)(C)C(C)(C)O1 (centres unmarked) [Compound 8] | – | – | – | yield of the desired products ([1]; urea.H2O2 300 mM, CD3CN:buffer 5:1): 84%; time for consumption of 50% of the starting material [1, 3]: 22 min; time for consumption of 50% of the starting material ([2]; CD3CN:buffer 1:1): ≤ 12 min; yield of the desired products ([2]; CD3CN:buffer 1:1): 84% |
| CCOC(C)(CCc1ccc(O[Si](C)(C)C(C)(C)C)cc1)B1OC(C)(C)C(C)(C)O1 (centres unmarked) [Compound 15] | 89% | < 2 min | – | – |
| CCC(C)(OCC(C)C)B1OC(C)(C)C(C)(C)O1 (centres unmarked) [Compound 17] | 89% | < 2 min | – | – |
| Cc1c(C)c2c(c(C)c1OC(=O)OC(C)(CCO[Si](C)(C)C(C)(C)C)B1OC(C)(C)C(C)(C)O1)CCC(C)(C)O2 (centres unmarked) [Compound 20] | 79% | 90 min | somewhat slow | – |
| CCC(C)(OC(=O)c1ccccc1)B1OC(C)(C)C(C)(C)O1 (centres unmarked) [Compound 22] | 16% | > 936 min | – | – |
| COc1ccc([C@H]2OCC[C@](C)(B3OC(C)(C)C(C)(C)O3)O2)cc1 [Compound 28] | – | – | – | time for consumption of 50% of the starting material ([1]; H2O2, pH 8.0): ≤ 1.5 min; time to complete conversion ([1]; H2O2, pH 8.0): < 15 min; yield of anisaldehyde and 1-hydroxy-3-butanone ([1]; H2O2, pH 8.0): 94% |
| CC1(B2OC(C)(C)C(C)(C)O2)CCOC(c2ccccc2)(c2ccccc2)O1 (centres unmarked) [Compound 29] | – | – | quickly and efficiently | – |
